Target: T1, Bile acid receptor (Homo sapiens, UniProt Q96RI1)
T1 sequence (Q96RI1 whole entry): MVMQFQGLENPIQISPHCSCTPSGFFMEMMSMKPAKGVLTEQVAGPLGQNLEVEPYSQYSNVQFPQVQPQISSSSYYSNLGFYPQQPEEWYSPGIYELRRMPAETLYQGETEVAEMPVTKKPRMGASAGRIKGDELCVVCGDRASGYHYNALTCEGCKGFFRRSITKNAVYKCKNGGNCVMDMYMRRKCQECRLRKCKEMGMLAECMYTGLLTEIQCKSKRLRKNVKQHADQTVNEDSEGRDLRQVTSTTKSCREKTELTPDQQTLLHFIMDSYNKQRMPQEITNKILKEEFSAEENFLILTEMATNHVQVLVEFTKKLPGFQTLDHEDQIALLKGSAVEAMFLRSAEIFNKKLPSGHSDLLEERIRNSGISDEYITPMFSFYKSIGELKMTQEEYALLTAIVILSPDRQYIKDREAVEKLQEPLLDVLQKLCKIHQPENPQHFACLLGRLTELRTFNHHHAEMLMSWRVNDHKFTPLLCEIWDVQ
Experiment: Binding affinity for Farnesoid X Receptor (FXR)

EC50: > 30 µM
SMILES: C[C@H](CCC(=O)O)C1CC[C@H]2[C@@H]3[C@H](O)[C@H](Cc4ccccc4)C4C[C@H](O)CC[C@]4(C)[C@H]3CC[C@]12C (stereo partly specified)

From ChEMBL document CHEMBL1136407, “Binding mode of 6ECDCA, a potent bile acid agonist of the farnesoid X receptor (FXR)” (Bioorg Med Chem Lett, 2003)
